For experiment [1], the system named is Lewis rats with MBP-induced EAE. Put plainly: Prevention of MBP-induced experimental allergic encephalomyelitis. Format: in vivo, Lewis rat. Conditions: 100 mg/kg b.i.d. oral gavage, day 3 to day 16 post-inoculation. The protocol: Female, Lewis rats of 8 weeks of age (180-250 g) were weighed and then given two intradermal injections (0.1 mL each) of 0.4 mg of M. tuberculin in 0.1 mL incomplete Freunds adjuvant and […] of myelin basic protein in 0.1 mL of saline into the base of the tail. Animals were weighed daily and given a clinical score beginning on Day 8, post inoculation, according to the following criteria:
2.5=Hind limb paralysis and front limb weakness
3.0=Hind and front limb paralysis
4.0=Moribund state or death
On day 3, post-inoculation animals were administered b.i.d either a test compound (100 mg/kg) or 1% methylcellulose vehicle by oral gavage up to and including day 16.

For experiment [2], the system named is Male Sprague-Dawley rats injected with Aβ(25-35) and ibotenate. The experiment can be described thus: Reduction of cognitive defects due to Aβ-peptide/ibotenate (Morris water maze). Conditions: 10 mgl/k by oral gavage daily. Format: in vivo, Sprague-Dawley rat. The source says:
The procedures employed in this example are similar to those described in Dornan et al. NeuroReport 5, 165-168 (1993). Male Sprague-Dawley rats (200-300 g) were weighed and given 10 mgl/k of α-(2-ethoxyphenyl)-N-tert-butylnitrone or 1% methylcellulose by oral gavage. One hour later, the rats were stereotaxically injected into the CA1 region of their hippocampus with 8 nmol of Aβ(25-35) and 6 nmol of ibotenate per side (coordinates from bregma −3.6=AP, ±2.2=ML, −3.0=DV from the top of the dura). Controls were injected with PBS (pH 7.4). All injections were 1.5 μL in volume. The animals receiving PBS were orally dosed with 1% methylcellulose. Oral dosing continued daily until the end of the Morris water maze testing.
Nine to eleven days following injection, animals were tested in a Morris water maze task to measure spatial memory and learning. Animals were given three days of testing with four to six trials per day. The last trial on the fourth day was a probe trial where the platform was removed and time in quadrant and annulae crossings were determined. Following the behavioral testing, animals were perfused with 10% neutral formalin. The brain was post-fixed for 1 week in 10% formalin and then sliced for histological evaluation. Image analysis of cresyl violet staining was used to compare the neuronal loss (lesion volume) in the hippocampus between groups.

Experiment [3] has as its system MRL/MpJ Fas^lpr mice. Put plainly: Reduction of cognitive deficits in autoimmune mice (T-maze task). The experiment is classed as in vivo, mouse. Particulars: 100 mg/kg oral gavage daily for 8 to 9 weeks, versus untreated mutant mice. The procedure:
MRL/MpJfas^lPr (“mutant mice” or “Fas^lPr”) strains of mice have been described as useful models of Lupus due to their autoimmune lymphoproliferative pathology. In particular, the mutant mice show a cognitive deficit at approximately four months of age, which is not observed at two months of age. See, for example, Forster et al., 1988. Behav. Neural Biology, 49, 139-151.
In the experiment, male MRL/MpJ Fas^lpr and normal MRL/MpJ++mice of 8 weeks of age were weighed and administered 100 mg/kg of the test compound (either α-(2-ethoxyphenyl)-N-tert-butylnitrone or α-(4-ethoxyphenyl)-N-cyclohexylnitrone) or 1% methylcellulose vehicle by oral gavage daily for 8 to 9 weeks. At 4 months of age, the mice were tested for avoidance, discrimination, session criteria and acquisition in a one day T-maze task with a maximum of 25 trials. Criteria was met with four of five trials correct with the last two correct trials being consecutive in avoidance and discrimination.

As to `CCOc1cc(C=[N+]([O-])C(C)(C)C)ccc1OC` [Example 3, α-(3-Ethoxy-4-methoxyphenyl)-N-tert-butylnitrone], the “CNS inflammatory deficit in acute EAE animals” value (from here on “CNS inflammatory deficit”) in experiment [1] was “reduced the CNS inflammatory deficit”.
As to `CCOc1ccc(C=[N+]([O-])C(C)(C)C)cc1` [Example 4, α-(4-Ethoxyphenyl)-N-tert-butylnitrone], in experiment [1], the “CNS inflammatory deficit” value is reported as “did not significantly reduce the CNS inflammatory deficit”.
On to `COc1cc(C=[N+]([O-])C(C)(C)C)ccc1OCc1ccccc1` [Example 5, α-(4-Benzyloxy-3-methoxyphenyl)-N-tert-butylnitrone], for which, in experiment [1], the “CNS inflammatory deficit” value is reported as “did not significantly reduce the CNS inflammatory deficit”.
For `CCOc1ccccc1C=[N+]([O-])C(C)(C)C` [Example 7, α-(2-Ethoxyphenyl)-N-tert-butylnitrone], in experiment [2], the “Aβ peptide/ibotenate-induced learning deficit” value is “reduced the Aβ peptide/ibotenate-induced learning deficit”. For the same molecule, in experiment [3], the “acquisition in T-maze task” value is recorded as “reduced acquisition values” and the “avoidance in T-maze task” value is “acquired avoidance skills earlier”. In addition, in experiment [1], the “CNS inflammatory deficit” value is on record as “did not significantly reduce the CNS inflammatory deficit”.
Consider `CCCC[N+]([O-])=Cc1ccc(OCC)cc1` [Example 10, α-(4-ethoxyphenyl)-N-n-butylnitrone], for which, in experiment [1], the “CNS inflammatory deficit” value was “did not significantly reduce the CNS inflammatory deficit”.
In the case of `CCOc1ccc(C=[N+]([O-])C2CCCCC2)cc1` [Example 11, α-(4-Ethoxyphenyl)-N-cyclohexylnitrone], in experiment [3], the “acquisition in T-maze task” value is “reduced acquisition values” and the “avoidance in T-maze task” value was “acquired avoidance skills earlier”. Moreover, in experiment [1], the “CNS inflammatory deficit” value is on record as “reduced the CNS inflammatory deficit”.
As to `CCOc1ccc(C=[N+]([O-])C2CCCCC2)cc1OC` [Example 15, α-(4-Ethoxy-3-methoxyphenyl)-N-cyclohexylnitrone], the “CNS inflammatory deficit” value in experiment [1] is on record as “did not significantly reduce the CNS inflammatory deficit”.
Consider `CCOc1cc(C=[N+]([O-])C(C)C)ccc1OC` [Example 17, α-(3-Ethoxy-4-methoxyphenyl)-N-isopropylnitrone], for which the “CNS inflammatory deficit” value in experiment [1] is “reduced the CNS inflammatory deficit”.
For the molecule `CCCCCCOc1ccc(C=[N+]([O-])C2CCCCC2)cc1OCC` [Example 22, α-(3-Ethoxy-4hexyloxyphenyl)-N-cyclohexylnitrone], in experiment [1], the “CNS inflammatory deficit” value is “reduced the CNS inflammatory deficit”.
On the same count and under the same terms, the entry for `CCCCCCCCOc1ccc(C=[N+]([O-])C(C)(C)C)c(F)c1` [Example 29, α-(2-Fluoro-4-octyloxyphenyl)-N-tert-butylnitrone] is “did not significantly reduce the CNS inflammatory deficit”.
Same read-out and setting: in the case of `CC(C)(C)[N+]([O-])=Cc1ccc(OCc2ccccc2)cc1` [Example 41, α-(4-Benzyloxyphenyl)-N-tert-butylnitrone] it was “reduced the CNS inflammatory deficit”.
The same measure, in the same setting: the entry for `[O-][N+](=Cc1ccc(OCc2ccccc2)cc1)C1CCCC1` [Example 42, α-(4-Benzyloxyphenyl)-N-cyclopentylnitrone] is “reduced the CNS inflammatory deficit”.
In the case of `CCOc1cc(C=[N+]([O-])C(C)(C)CC(C)(C)C)ccc1OC` [Example 45, α-(3-Ethoxy-4-methoxyphenyl)-N-tert-octylnitrone], the “CNS inflammatory deficit” value in experiment [1] is given as “reduced the CNS inflammatory deficit”.

Source of the values: US6441032B1, “Alpha-(4-Ethoxyphenyl)-N-tert-butylnitrone, pharmaceutical compositions and their medical use” (Centaur Pharmaceuticals, Inc., priority 1997, dated 2002).
